17 compounds from patent US12678446B2 (PFIZER INC., priority 2020, dated 2026) can be followed below.

Series [1] relates to RSV (RSV A2 ECACC, 0709161v). Briefly: RSV plaque reduction assay. It is filed as cell-based, respiratory syncytial virus. The gist of the method:
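Hep-G2 monolayers infected with 100 PFU/well RSV A2 premixed with eight serial compound dilutions (2 h, 37° C.), then kept 2 days under CMC overlay with compound in DMEM/2% FBS. Plaques immunostained (HRP/TrueBlue) and counted; % infection versus virus control gives EC50, mean of at least two experiments, rounded.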

For series [2], the system named is Hep-G2 cells. As to the kind of experiment: cell toxicity CC50. It is filed as cell-based. The following applies: mean of at least two experiments, read-out: Cell Cytotoxicity CC50.
Setting [3] is: read-out: RSV A2 Plaque EC50; RSV A2 in Hep-G2 cells; mean of at least two experiments unless noted (n = 1).
[4] abbreviates: RSV A2 in Hep-G2 cells; mean of at least two experiments unless noted (n = 1); read-out: RSV A2 Plaque EC50.

pEC50: −log10 of the molar value. Where two headings read alike, the source gives them in different places. Where only a bound is given, the exact number is not on record here.

For the compound `O=C(N[C@H]1N=C(c2ccccc2)c2ccccc2NC1=O)c1c(-c2c(F)cccc2F)nn2c1OC(CO)CC2` (single isomer, unassigned) [Example 188-2, (5S*)-2-(2,6-Difluorophenyl)-5-(hydroxymethyl)-N-[(3S)-2-oxo-5-phenyl-1,3-dihydro-1,4-benzodiazepin-3-yl]-6,7-dihydro-5H-pyrazolo[5,1-b][1,3]oxazine-3-carboxamide], the pEC50 in series [1] (setting [3]) was 6.55. In addition, the CC50 in series [2] was greater than 25000 nM.
As to “2-(2,6-Difluorophenyl)-N-[(3S)-9-fluoro-2-oxo-5-phenyl-1,3-dihydro-1,4-benzodiazepin-3-yl]-6,7-dihydro-5H-pyrazolo[5,1-b][1,3]oxazine-3-carboxamide [Example 196]”, the pEC50 in series [1] (setting [4]) is 7.60. Besides, the CC50 in series [2] was greater than 25000 nM.
For “N-[(3S)-9-fluoro-2- oxo-5-phenyl-1,3- dihydro-1,4- benzodiazepin-3-yl]-2- (2-fluorophenyl)-6- (morpholin-4- ylmethyl)-6,7-dihydro- 5H-pyrazolo[5,1- b][1,3]oxazine-3- carboxamide [Example 173]” the same measures were 7.04 and greater than 25000 nM.
With `O=C(N[C@H]1N=C(c2ccccc2)c2cccc(F)c2NC1=O)c1c(-c2ccccc2F)nn2c1OCC(CO)C2` (single isomer, unassigned) [Example 110-2, (6S*)-N-[(3S)-9-fluoro-2-oxo-5-phenyl-1,3-dihydro-1,4-benzodiazepin-3-yl]-2-(2-fluorophenyl)-6-(hydroxymethyl)-6,7-dihydro-5H-pyrazolo[5,1-b][1,3]oxazine-3-carboxamide], in series [1] (setting [3]), the pEC50 was 7.21. In series [2], the CC50 is greater than 25000 nM.
Take “N-[(3S)-9-fluoro-2- oxo-5-phenyl-1,3- dihydro-1,4- benzodiazepin-3-yl]- 2-(2-fluorophenyl)- 6-(hydroxymethyl)- 6,7-dihydro-5H- pyrazolo[5,1- b][1,3]oxazine-3- carboxamide [Example 110]”: the pEC50 in series [1] (setting [4]) is 7.29. In addition, the CC50 in series [2] was greater than 25000 nM.
`CCNc1ccc(-c2nn3c(c2C(=O)N[C@H]2N=C(c4ccccc4)c4cccc(F)c4NC2=O)OCCC3)c(F)n1` [Example 3, 2-[6-(Ethylamino)-2-fluoropyridin-3-yl]-N-[(3S)-9-fluoro-2-oxo-5-phenyl-1,3-dihydro-1,4-benzodiazepin-3-yl]-6,7-dihydro-5H-pyrazolo[5,1-b][1,3]oxazine-3-carboxamide]: the pEC50 in series [1] (setting [4]) is 7.70. Also, the CC50 in series [2] is greater than 25000 nM.
`O=C(N[C@H]1N=C(c2ccccc2)c2cccc(F)c2NC1=O)c1c(-c2ccccc2F)nn2c1OC(CO)CC2` (single isomer, unassigned) [Example 190-2, (5S*)-2-(2-Fluorophenyl)-5-(hydroxymethyl)-N-[(3S)-9-fluoro-2-oxo-5-phenyl-1,3-dihydro-1,4-benzodiazepin-3-yl]-6,7-dihydro-5H-pyrazolo [5,1-b][1,3]oxazine-3-carboxamide]: in series [1] (setting [3]), the pEC50 is 6.81. In addition, the CC50 in series [2] was greater than 25000 nM.
For “N-[(3S)-9-fluoro-2- oxo-5-phenyl-1,3- dihydro-1,4- benzodiazepin-3-yl]- 2-(2-fluorophenyl)- 6-(methoxymethyl)- 6,7-dihydro-5H- pyrazolo[5,1- b][1,3]oxazine-3- carboxmaide [Example 113]”, the pEC50 in series [1] (setting [4]) was 7.28. The CC50 in series [2] is greater than 19400 nM.
For “(5R)-2-[1- (Difluoromethyl)pyra- zol-4-yl]-N-[(3S)-9- fluoro-2-oxo-5- phenyl-1,3-dihydro- 1,4-benzodiazepin-3- yl]-5-methyl-6,7- dihydro-5H- pyrazolo[5,1- b][1,3]oxazine-3- carboxamide [Example 120]” the same measures were 7.01 and greater than 25000 nM.
For “(5R)-N-[(3S)-9- fluoro-2-oxo-5- phenyl-1,3-dihydro- 1,4-benzodiazepin-3- yl]-5-methyl-2-(1- propan-2-ylpyrazol- 4-yl)-6,7-dihydro- 5H-pyrazolo[5,1- b][1,3]oxazine-3- carobxamide [Example 112]” the same measures were 7.30 and greater than 25000 nM.
`O=C(N[C@H]1N=C(c2ccccc2)c2cccc(F)c2NC1=O)c1c(-c2c(F)cccc2F)nn2c1OCC(CO)C2` (single isomer, unassigned) [Example 129-2, (6S*)-2-(2,6-Difluorophenyl)-N-[(3S)-9-fluoro-2-oxo-5-phenyl-1,3-dihydro-1,4-benzodiazepin-3-yl]-6-(hydroxymethyl)-6,7-dihydro-5H-pyrazolo[5,1-b][1,3]oxazine-3-carboxamide]: the pEC50 in series [1] (setting [3]) was 7.14. Besides, in series [2], the CC50 was greater than 25000 nM.
On to “tert-butyl N-[3- [[(3S)-9-fluoro-2- oxo-5-phenyl-1,3- dihydro-1,4- benzodiazepin-3- yl]carbamoyl]-2-(2- fluorophenyl)-6,7- dihydro-5H- pyrazolo[5,1- b][1,3]oxazin-6-yl]- N-methylcarbamate [Example 107]”, for which, in series [1] (setting [4]), the negative-log EC50 (pEC50) was 7.03. Further, the CC50 in series [2] is greater than 25000 nM.
The corresponding values for `O=C(N[C@H]1N=C(c2ccccc2)c2cccc(F)c2NC1=O)c1c(-c2ccccc2F)nn2c1OC(CO)CC2` (stereo partly drawn) [Example 123, N-[(3S)-9-Fluoro-2-oxo-5-phenyl-1,3-dihydro-1,4-benzodiazepin-3-yl]-2-(2-fluorophenyl)-5-(hydroxymethyl)-6,7-dihydro-5H-pyrazolo[5,1-b][1,3]oxazine-3-carboxamide] are 7.10 and greater than 25000 nM.
On to `O=C(N[C@H]1N=C(c2ccccc2)c2cccc(F)c2NC1=O)c1c(-c2c(F)cccc2F)nn2c1OC(CO)CC2` (single isomer, unassigned) [Example 189-2, (5S*)-2-(2,6-Difluorophenyl)-N-[(3S)-9-fluoro-2-oxo-5-phenyl-1,3-dihydro-1,4-benzodiazepin-3-yl]-5-(hydroxymethyl)-6,7-dihydro-5H-pyrazolo[5,1-b][1,3]oxazine-3-carboxamide], for which the pEC50 in series [1] (setting [3]) was 7.14. Also, the CC50 in series [2] was greater than 25000 nM.
“(5R)-2-(2-Fluoro-6-methylpyridin-3-yl)-5-methyl-N-[(3S)-2-oxo-5-phenyl-1,3-dihydro-1,4-benzodiazepin-3-yl]-6,7-dihydro-5H-pyrazolo[5,1-b][3,1]oxazine-3-carboxamide [Example 72]”: the pEC50 in series [1] (setting [4]) was 7.00. In addition, the CC50 in series [2] is greater than 25000 nM.
As to “2-[2-Fluoro-4- (hydroxymethyl)phe- nyl]-N-[(3S)-9- fluoro-2-oxo-5- phenyl-1,3-dihydro- 1,4-benzodiazepin-3- yl]-6,7-dihydro-5H- pyrazolo[5,1- b][1,3]oxazine-3- carboxamide [Example 134]”, the negative logarithm of the EC50 (pEC50) in series [1] (setting [4]) is 7.08. The CC50 in series [2] is greater than 25000 nM.
As to “N-[(3S)-9-fluoro-2- oxo-5-phenyl-1,3- dihydro-1,4- benzodiazepin-3-yl]- 2-(2-fluorophenyl)- 6-(pyrrolidin-1- ylmethyl)-6,7- dihydro-5H- pyrazolo[5,1- b][1,3]oxazine-3- carboxamide [Example 182]”, the pEC50 in series [1] (setting [4]) is 7.11. In addition, in series [2], the CC50 amounted to 20100 nM.
